Reference: patent publication US6753424B1, “Conjugates of DNA interacting groups with steroid hormones for use as nucleic acid transfection agents” (priority 1998, dated 2004)

Tests used:
[1] = system: 3Y1 cells; assay: Transfection enhancement, CMV-LacZ reporter, CaPO4 transfection of 3Y1 cells; type: cell-based, rat; conditions: for light units (relative luminescence, LacZ): 5 μg reporter, 3Y1
Protocol: Conditions: 3Y1 cells are transfected with an expression vector that is constitutively expressing the reporter gene LacZ (CMV-LacZ). Transfection conditions are identical throughout the various samples (total 10-12 μq DNA for 4 cm dishes). In some samples the DNA used for the transfection cocktail is pre-incubated with various conjugates at the given concentrations. The concentrations are calculated to give from 10−8 to 10−6 M after dispersing the CaPO4 precipitate in the recipient dish (5 ml volume). Transfection is performed O/N and after rinsing of the precipitate the cells are further incubated for 24 hours. LacZ levels are determined from cell extracts with a chemiluminescence LacZ enzyme assay (Galactolight plus. Tropix). The relative luminescence from each extract is given in RLU/mg*1000.
Cell culture. Cells are cultivated in DMEM supplemented with serum and antibiotica according to standard conditions (typically 10% FCS and Pen/Strep as antibiotica). At the day of transfection, cells are trypsinized and seeded at around 25-30% confluency. Cells are allowed to adhere to dish for 4-6 hours prior to transfection.
DNA pre-incubation (example for conditions that give5×10 exp (−6) Molar final concentration of the CL-C4-EtBr conjugate):
5 microgram of CMV-LacZ DNA (in 10 microliter TE) are mixed with 10 nmoles of hormone derivative (10 microliters stock solution) and incubated for 10 min at room temperature (final volume: 20 ul). The DNA/cortisol-C4-ethidum mix is then supplemented with 7 micrograms sheared calf thymus carrier DNA (in 14 microliters TE) and bidistilled water to give a final volume of 125 microliters.
Transfection by CaPO4: to each transfection sample (125 microliter volume DNA+water). 125 microliters of Ca ++ mix are added, and the mix is incubated for 5-10 min at room temperature. Each sample is then supplemented with 250 microliter of Pi-mix (with simultaneous mixing by up-down pipetting) and is further incubated 10 minutes at room temperature after which the cocktail is poured on top of the medium (5 ml) of each cell culture dish (4 cm diameter). The optimal time of incubation after Pi-mix addition is pre-determined by prior evaluation (size of the precipitate) of parallel samples. The precipitate is allowed to deposit onto the cells for 15 hours (incubation of 37 degrees, 5% CO2). The cells are then rinsed twice with Tris-buffered Saline, supplemented with fresh medium and further incubated under standard conditions. To analyze LacZ reporter gene function, the cells are either fixed or harvested 24 hours after precipitate removal.
Variation of parameters: samples in which the C1-C4-EtBr conjugates (or control compounds) are used at different concentrations, are similarly treated, except that the concentration of the stock solution in ethanol is correspondingly varied.

[2] = system: CV-1 cells reconstituted with exogenous GR; assay: Transfection enhancement, CMV-LacZ reporter, CV-1 cells reconstituted with exogenous GR; type: cell-based, monkey; conditions: CV-1 cells that have not been supplemented with GR; data not shown
[3] = system: CV-1 cells reconstituted with exogenous GR; assay: as above; type: cell-based, monkey
Protocol: Conditions: CV-1 cells are first infected with an adenovirus system allowing expression of GR in >90% of the cells (S. B. Verca, unpublished). After 24 hours the cells are; transfected with an expression vector that is constitutively expressing the reporter gene LacZ (CMV-LacZ). Transfection conditions and analysis of LacZ reporter are the same as described in Example 7 legend. Transfection is performed O/N and after rinsing of the precipitate the cells are further incubated for 24 hours. LacZ levels are determined from cell extracts with a chemiluminescence LacZ enzyme assay (Galactolight plus, Tropix). The relative luminescence from each extract is given. Each value represents an individual extract. “Induction”: relative reporter gene activity (values divided by value of assay in lane 9, true negative control for liganding), rel/RLU=(RLU:protein)×1000, net=rel/RLU−600 (600=rel/RLU value approximately corresponding to rel/RLU value of mock transfection).

[4] = system: GR-GFP chimera; assay: Nuclear Transfer Induction assay (NTI), monourethane ligands, HeLa cells; type: cell-based; conditions: 1 hr
Protocol: Conditions: HeLa cells are transiently transfected by CaPO4 with an expression vector encoding a GR-GFP chimera (5 μg in transfection cocktail, 4 cm diameter dishes, DMEM with 3% FCS). After 24 hour expression, ligand is added for 1 hr and cells are fixed with formaldehyde (5 min 4° C.) and inspected by fluorescence microscopy. Fluorescent cells are counted and divided into different classes according to ‘cytoplasmic’ (C) versus ‘nuclear’ (N) localisation of fluorescence.
First column: “Conditions”: Name of compounds added (marked at top: ‘//ligand’), and their concentration (in parentheses) and assay number (01 through 21).
Values are given as percentage of cells displaying the corresponding localisatidn, within each tested condition the sum is 100%.

[5] = system: HUH-7 cells; assay: Transfection enhancement, CMV-LacZ reporter, HUH-7 cells; type: cell-based, human
Protocol: Conditions: HUH-7 cells are human hepatoma cells that contain substantial amounts of glucocorticoid receptor. The cells are transfected with an expression vector that is constitutively expressing the reporter gene LacZ (CMV-LacZ). Transfection conditions and analysis of LacZ reporter are the same as described in Example 7 legend. Transfection is performed O/N and after rinsing of the precipitate the cells are further incubated for 24 hours. LacZ levels are determined from cell extracts with a chemiluminescence LacZ enzyme assay (Galactolight plus, Tropix). The relative luminescence from each extract is given. Each value represents an individual extract. “Induction”: relative reporter gene activity (values divided by value of assay in lane 9, true negative control for DNA liganding). rel/RLU=(RLU:protein)×1000; net=rel/RLU−600 (600=rel/RLU value approximately corresponding to rel/RLU value of mock transfection).

[6] = system: pBR322, linearized with HindIII; assay: DNA cross-linking by 365 nm UV irradiation, alkaline gel electrophoresis; type: biochemical; conditions: 5 nmoles, 1 microgram DNA, 20 min 365 nm UV
Protocol: DNA: CsCl purified pBR322, linearized with HindIII and resuspended in TE at a concentration of 30 nanogram/microliter hormone derivative: cortisol-C4psoralen resuspended in 100% methanol at a concentration of 10 exp(−3) Molar psoralen (Fluka) resuspended in 100% ethanol at a concentration of 10 exp(−3)Molar.
Irradiation buffer: 50 mM Tris (pH=7.5), 0.1 mM EDTA, 10 mM NaCl, 10 mM MgCl2 crosslinker apparatus: Bio-Link (BLX) equipped with 4 UV lamps (T-8.L, 365 nanometer nominal wave length) 1 microgram of DNA (in 33 microliter) is mixed at room temperature with 5 nmoles cortisol-C4-psoralen or plain psoralen (either in 5 microliter) and 33 microliter irradiation buffer and pipetted into a well (final volume: 71 microliter) The 96× wells plate is then covered by its plastic lid and put on top of an ice-bed in a plastic box inside the crosslinker apparatus. The cooled microwell plate is irradiated for 20 min with 365 nm UV light (corresponds to an approximate value of 16 joules/square cm). The cross-linked products are then precipitated 2 times with ethanol and resuspended in TE. The products are compared to non-irradiated samples by alkaline gel electrophoresis, where cross-linked DNA maintains its double-stranded molecular weight.

CC[n+]1c(-c2ccccc2)c2cc(NC(=O)CCNC(=O)OCC(=O)[C@@]3(O)CCC4C5CCC6=CC(=O)CCC6(C)C5C(O)CC43C)ccc2c2ccc(N)cc21 (stereo partly drawn) [CL-C4-EtBr]
improvement of expression ([1]; lane 10 (10^-6M) versus lanes 11-13, 3Y1): 5-7 fold
light units (relative luminescence, LacZ) ([1]; ligand 10^-6M): 7250 RLU/mg*1000
light units (relative luminescence, LacZ) ([1]; ligand 10^-7M): 3750 RLU/mg*1000
light units (relative luminescence, LacZ) ([1]; ligand 10^-8M): 2750 RLU/mg*1000
SMGD effect (transfection enhancement) [2]: No SMGD effect
improvement of expression ([3]; lane 06 (10-6) versus lanes 7-9, CV-1 with GR): 15-20 fold
RLU ([3]; ligand 10-6, CV-1 with GR): 10010
induction (relative reporter gene activity, divided by value of lane 9) ([3]; ligand 10-6, CV-1 with GR): 17.3
net = rel/RLU−600 ([3]; ligand 10-6, CV-1 with GR): 13992
rel/RLU = (RLU:protein)×1000 ([3]; ligand 10-6, CV-1 with GR): 14592
RLU ([3]; ligand 10-7, CV-1 with GR): 1988
induction (relative reporter gene activity, divided by value of lane 9) ([3]; ligand 10-7, CV-1 with GR): 2.75
net = rel/RLU−600 ([3]; ligand 10-7, CV-1 with GR): 2232
rel/RLU = (RLU:protein)×1000 ([3]; ligand 10-7, CV-1 with GR): 2831.9
RLU ([3]; ligand 10-8, CV-1 with GR): 1211
induction (relative reporter gene activity, divided by value of lane 9) ([3]; ligand 10-8, CV-1 with GR): 1.33
net = rel/RLU−600 ([3]; ligand 10-8, CV-1 with GR): 1075
rel/RLU = (RLU:protein)×1000 ([3]; ligand 10-8, CV-1 with GR): 1675
C < N, percentage of cells ([4]; ligand 1.10-6M): 45%
C << N, percentage of cells ([4]; ligand 1.10-6M): 0%
C = N, percentage of cells ([4]; ligand 1.10-6M): 55%
C > N, percentage of cells ([4]; ligand 1.10-6M): 0%
C >> N, percentage of cells ([4]; ligand 1.10-6M): 0%
C < N, percentage of cells ([4]; ligand 1.10-7M): 9%
C << N, percentage of cells ([4]; ligand 1.10-7M): 0%
C = N, percentage of cells ([4]; ligand 1.10-7M): 74%
C > N, percentage of cells ([4]; ligand 1.10-7M): 17%
C >> N, percentage of cells ([4]; ligand 1.10-7M): 0%
improvement of expression ([5]; lane 07 (10-6) versus lanes 8-9, HUH-7): 7-8 fold
RLU ([5]; ligand 10-6, HUH-7): 629514
induction (relative reporter gene activity, divided by value of lane 9) ([5]; ligand 10-6, HUH-7): 7.84
net ([5]; ligand 10-6, HUH-7): 543
rel/RLU ([5]; ligand 10-6, HUH-7): 673.3
RLU ([5]; ligand 10-7, HUH-7): 198082
induction (relative reporter gene activity, divided by value of lane 9) ([5]; ligand 10-7, HUH-7): 1.95
net ([5]; ligand 10-7, HUH-7): 135
rel/RLU ([5]; ligand 10-7, HUH-7): 265.2

Cc1oc2c(C)c3oc(=O)cc(C)c3cc2c1CNC(=O)CCNC(=O)OCC(=O)[C@@]1(O)CCC2C3CCC4=CC(=O)CCC4(C)C3C(O)CC21C (stereo partly drawn) [CL-C4-Pso]
DNA cross-linking efficiency [6]: as efficient as cross-linking with free psoralen
C < N, percentage of cells ([4]; ligand 1.10-6M): 63%
C << N, percentage of cells ([4]; ligand 1.10-6M): 8%
C = N, percentage of cells ([4]; ligand 1.10-6M): 29%
C > N, percentage of cells ([4]; ligand 1.10-6M): 0%
C >> N, percentage of cells ([4]; ligand 1.10-6M): 0%
C < N, percentage of cells ([4]; ligand 1.10-7M): 5%
C << N, percentage of cells ([4]; ligand 1.10-7M): 0%
C = N, percentage of cells ([4]; ligand 1.10-7M): 75%
C > N, percentage of cells ([4]; ligand 1.10-7M): 20%
C >> N, percentage of cells ([4]; ligand 1.10-7M): 0%

COC(=O)CCNC(=O)OCC(=O)[C@@]1(O)CCC2C3CCC4=CC(=O)CCC4(C)C3C(O)CC21C (stereo partly drawn) [CL-C4]
light units (relative luminescence, LacZ) ([1]; ligand 10^-6M): 3750 RLU/mg*1000
light units (relative luminescence, LacZ) ([1]; ligand 10^-7M): 1625 RLU/mg*1000
light units (relative luminescence, LacZ) ([1]; ligand 10^-8M): 2500 RLU/mg*1000
